The target in one experiment is T1, Cph1 (N514 truncation) (Synechocystis sp. PCC 6803, UniProt Q55168).
T1 construct: N514 truncation construct sufficient for photoconversion, His-tagged, E. coli
T1 sequence (Q55168 1-514): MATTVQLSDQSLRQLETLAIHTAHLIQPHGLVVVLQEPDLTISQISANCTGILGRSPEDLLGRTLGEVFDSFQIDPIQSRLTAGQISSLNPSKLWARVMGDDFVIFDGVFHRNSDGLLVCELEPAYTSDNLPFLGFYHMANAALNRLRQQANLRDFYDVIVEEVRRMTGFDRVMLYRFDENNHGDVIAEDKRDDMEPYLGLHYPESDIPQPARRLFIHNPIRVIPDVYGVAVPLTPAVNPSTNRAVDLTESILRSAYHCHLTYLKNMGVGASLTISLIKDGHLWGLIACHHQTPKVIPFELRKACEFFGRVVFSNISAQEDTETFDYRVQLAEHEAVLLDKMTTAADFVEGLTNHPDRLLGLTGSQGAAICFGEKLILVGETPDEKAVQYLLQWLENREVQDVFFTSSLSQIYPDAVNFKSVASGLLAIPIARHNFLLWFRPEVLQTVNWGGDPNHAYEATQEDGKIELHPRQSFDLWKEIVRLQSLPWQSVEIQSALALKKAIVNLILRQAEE
The experiment in a line: absorption, photoconversion, acid denaturation. In kind it is binding. Conditions: covalent adduct.

Experiment [1] has as its target T2, POZ53552 (BBAG-1) (Methylovulum psychrotolerans, UniProt A0A2S5CS40).
T2 construct: gene AADEFJLK_00580; synthetic gene in pET28 (pET28-RcaE backbone); coexpressed in E. coli with bilin biosynthesis plasmid; CXRD motif
T2 sequence (A0A2S5CS40 1-198): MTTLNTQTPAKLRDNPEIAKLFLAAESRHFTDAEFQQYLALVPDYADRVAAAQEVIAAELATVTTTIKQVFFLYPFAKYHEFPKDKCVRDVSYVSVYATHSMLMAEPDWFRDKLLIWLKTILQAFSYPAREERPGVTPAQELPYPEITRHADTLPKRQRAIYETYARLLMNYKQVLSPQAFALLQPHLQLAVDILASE
Nature of the experiment: absorption of purified holoprotein, acid denaturation. In kind it is binding. Particulars: covalent (CXRD motif).

The target in another experiment is T3, POZ53557 (pre-1 FDBR) (Methylovulum psychrotolerans, UniProt A0A2S5CS30).
T3 construct: gene pcyA; replaces alt-PcyA in plasmid Spam-545/alt557, coexpressed in E. coli with HO and Cph1 reporter; not purified
T3 sequence (A0A2S5CS30 1-228): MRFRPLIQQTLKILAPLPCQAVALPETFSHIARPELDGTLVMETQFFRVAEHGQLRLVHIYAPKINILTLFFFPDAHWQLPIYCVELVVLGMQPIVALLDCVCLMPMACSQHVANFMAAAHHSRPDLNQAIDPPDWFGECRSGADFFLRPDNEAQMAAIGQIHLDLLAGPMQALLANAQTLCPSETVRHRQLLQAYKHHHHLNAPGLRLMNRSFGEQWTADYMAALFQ
The experiment in a line: coexpression in E. coli with HO and Cph1 reporter; bilin identified on reporter. Conditions: E. coli coexpression with HO POZ53545; inefficient reduction to PΦB. Format: cell-based.

Experiment [2] deals with T2, POZ53552 (BBAG-1). Nature of the experiment: absorption of purified holoprotein. In kind it is binding. Conditions: covalent (CXRD motif); coexpressed with HO POZ53545 alone (Spam-545xc); poor chromophorylation.
The target in the next experiment is T4, CAP_1521 (BBAG-2) (Chondromyces apiculatus, UniProt A0A017TC46).
T4 construct: coexpressed in E. coli with bilin biosynthesis plasmid
T4 sequence (A0A017TC46 1-259): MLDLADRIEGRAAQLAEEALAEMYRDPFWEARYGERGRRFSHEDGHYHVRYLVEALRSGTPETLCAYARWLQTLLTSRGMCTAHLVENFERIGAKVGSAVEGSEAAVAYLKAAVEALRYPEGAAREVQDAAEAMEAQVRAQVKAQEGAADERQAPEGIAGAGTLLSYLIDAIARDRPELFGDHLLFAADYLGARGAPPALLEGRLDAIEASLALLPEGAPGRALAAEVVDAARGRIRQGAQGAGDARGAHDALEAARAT
The experiment in a line: absorption of purified holoprotein, acid denaturation, CD. Format: binding. Particulars: covalent adduct; coexpressed in E. coli with HO POZ53545 and CAP_1520; 25 °C.

With `C=CC1=C(C)C(CC2=NC(=Cc3[nH]c(C=C4NC(=O)C(C)C4=CC)c(C)c3CCC(=O)O)C(CCC(=O)O)=C2C)NC1=O` (stereo not shown) [PEB], at Cph1 (N514 truncation) (coexpressed with Spam-545/8304, photoinactive population of mixed preparation), the “absorption, photoconversion, acid denaturation” value is “The photoinactive pink population was consistent with the known properties of the PEB adduct”. Further, the “absorption of purified holoprotein, acid denaturation” value on POZ53552 (BBAG-1) [1] (coexpressed with Spam-545/8304, mixture of PΦB and PEB adducts) is “Denaturation analysis confirmed that these peaks reflected a mixture of PΦB and PEB”.

In the case of `C=CC1=C(C)C(=Cc2[nH]c(C=C3N=C(C=C4NC(=O)C(C)=C4C=C)C(C)=C3CCC(=O)O)c(CCC(=O)O)c2C)NC1=O` [BV], the “coexpression in E. coli with HO and Cph1 reporter; bilin identified on reporter” value at POZ53557 (pre-1 FDBR) is listed as “POZ53557 appears to carry out inefficient reduction of BV to PΦB”. Moreover, the “absorption of purified holoprotein” value at POZ53552 (BBAG-1) [2] was “POZ53545 with no FDBR (synthesizing BV; plasmid Spam-545xc”. The “absorption of purified holoprotein, acid denaturation, CD” value at CAP_1521 (BBAG-2) is recorded as “Acid denaturation demonstrated that both possessed BV adducts rather than PΦB adducts”.

Turning to `C=CC1=C(C)C(=CC2=NC(=Cc3[nH]c(C=C4NC(=O)C(C)C4=CC)c(C)c3CCC(=O)O)C(CCC(=O)O)=C2C)NC1=O` (stereo not shown) [PΦB], the “absorption, photoconversion, acid denaturation” value at Cph1 (N514 truncation) (coexpressed with Spam-545/CAP) is reported as “confirmed that this preparation contained a PΦB chromophore”. Moreover, at POZ53552 (BBAG-1) [1] (coexpressed with Spam-545/CAP, poor chromophorylation), the “absorption of purified holoprotein, acid denaturation” value is “BBAG-1 POZ53552 incorporated PΦB when coexpressed with Spam-545/CAP”.
